Experimental data as given in PMC5220080, “Modulating Beta-Cardiac Myosin Function at the Molecular and Tissue Levels” (Frontiers in Physiology, 2017).

Experiments:
[1] = biological target: T1, human beta-cardiac myosin subfragment 1 (M2β-S1) (Homo sapiens, UniProt P12883); assay: stopped-flow mant fluorescence, release from acto-M2β-S1 on mixing with ATP (rate constant without pN-Bleb); assay type: binding; parameters: gene MYH7; subfragment 1, amino acids 1–843, N-terminal FLAG tag, C-terminal Avi tag; with actin; conditions: read-out: stopped-flow mant fluorescence, release from acto-M2β-S1 on mixing with ATP (rat)
[2] = biological target: T2, skeletal muscle heavy meromyosin (Sk HMM); assay: actin-activated ATPase (NADH-linked assay); also in vitro motility (IC50 […]); assay type: biochemical
T2 construct: heavy meromyosin, prepared from rabbit psoas muscle (Results text says chicken)

[3] = biological target: T1, human beta-cardiac myosin subfragment 1 (M2β-S1); assay: as above; assay type: biochemical; parameters: gene MYH7; subfragment 1, amino acids 1–843, N-terminal FLAG tag, C-terminal Avi tag

T1 sequence (P12883 1-843): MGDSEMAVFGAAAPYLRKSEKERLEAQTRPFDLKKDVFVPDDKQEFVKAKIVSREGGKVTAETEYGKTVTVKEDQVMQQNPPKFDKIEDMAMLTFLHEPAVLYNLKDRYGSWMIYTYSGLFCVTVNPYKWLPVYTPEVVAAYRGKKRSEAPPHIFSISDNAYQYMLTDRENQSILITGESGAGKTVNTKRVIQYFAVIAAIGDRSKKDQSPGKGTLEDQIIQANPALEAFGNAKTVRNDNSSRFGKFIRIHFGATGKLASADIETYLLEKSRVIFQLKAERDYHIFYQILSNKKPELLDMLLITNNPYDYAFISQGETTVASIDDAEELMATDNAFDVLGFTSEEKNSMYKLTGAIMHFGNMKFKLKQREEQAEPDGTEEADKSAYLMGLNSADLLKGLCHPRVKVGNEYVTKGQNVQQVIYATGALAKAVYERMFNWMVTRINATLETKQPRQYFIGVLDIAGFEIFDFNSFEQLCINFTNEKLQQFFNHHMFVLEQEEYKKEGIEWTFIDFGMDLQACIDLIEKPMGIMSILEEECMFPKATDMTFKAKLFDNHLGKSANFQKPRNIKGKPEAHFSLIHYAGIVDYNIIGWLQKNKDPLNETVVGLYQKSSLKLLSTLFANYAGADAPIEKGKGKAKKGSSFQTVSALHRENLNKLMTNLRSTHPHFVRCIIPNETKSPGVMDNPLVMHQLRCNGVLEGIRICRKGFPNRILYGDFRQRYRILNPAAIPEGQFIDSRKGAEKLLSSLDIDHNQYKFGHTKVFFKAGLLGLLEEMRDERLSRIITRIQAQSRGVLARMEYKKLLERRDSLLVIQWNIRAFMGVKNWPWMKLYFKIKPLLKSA

| Structure (SMILES) | koff [1] [s⁻¹] | IC50 [2] [µM] | IC50 [3] [µM] |
| --- | --- | --- | --- |
| CNc1ccccc1C(=O)O[C@H]1C[C@H](n2cnc3c(N)ncnc32)O[C@@H]1COP(=O)(O)OP(=O)(O)O | 229 ± 6.5 |  |  |
| Cc1ccc2c(c1)C(=O)[C@]1(O)CCN(c3ccc([N+](=O)[O-])cc3)C1=N2 [pN-Bleb, para-Nitroblebbistatin] |  | 0.43 ± 0.11 | 12.3 ± 1.8 |
